From US11472830B2, “Cyclic dinucleotides as sting agonists” (Janssen Biotech, Inc., priority 2016, dated 2022) come the findings set out here.

By EC50 is commonly meant the concentration that produces a half-maximal response. One may read the IC50 as the concentration that inhibits the measured activity by half.

For assay [1], the system named is CT26 colon carcinoma tumor. The assay can be described thus: STING in vivo activity, mouse CT26 tumor model. The following applies: CT26 tumor in Balb/c mice, 0.05 mg intratumorally every three days, three doses; for In vivo activity (cures): animals with no measurable tumor of 8. As for the experimental part: For all studies, female Balb/c mice were obtained from Charles River Labs (Wilmington, Mass.) and used when they were 6-8 weeks of age and weighed approximately 20 g. All animals were allowed to acclimate and recover from any shipping-related stress for a minimum of 5 days prior to experimental use. Reverse osmosis chlorinated water and irradiated food (Laboratory Autoclavable Rodent Diet 5010, Lab Diet) were provided ad libitum, and the animals were maintained on a 12 h light and dark cycle. Cages and bedding were autoclaved before use and changed weekly. All experiments were carried out in accordance with The Guide for the Care and Use of Laboratory Animals and were approved by the Institutional Animal Care and Use Committee of Janssen R & D, Spring House, Pa. Each experimental group contained 8 mice. In vivo efficacy in a mouse CT26 tumor model was determined by implanting 500,000 CT26 colon carcinoma tumor cells subcutaneously into Balb/c mice and allowing tumors to establish to 100-300 mm^3. Compounds were injected intratumorally formulated in phosphate buffered saline in a volume of 0.1 ml per injection. Mice were administered 0.05 mg every three days for a total of three doses. Efficacy was measured as the percent tumor growth inhibition (TGI) calculated by the reduction in size of the Treated tumor volume (T) over the Control tumor volume (C) according to the following formula: ((C−T)/(C))*100 when all control animals were still on study. Cures were defined as the number of animals with no measurable tumor detected 10 tumor volume doubling times (TVDT) after the last dose was administered.

Assay [2] has as its system IFN-β secretion in THP1-Blue ISG cells. The experiment in a line: Human interferon-β induction assay. It is filed as cell-based. The following applies: total cumulative IFN-β induction over the dose range tested (0.78 to 50 uM) in THP-1 cells. As for the experimental part: Human Interferon-β Induction Assay
THP1-Blue ISG cells are used to measure the secretion of IFN-β into the culture supernatant following STING pathway activation. To run the assay, anti-IFN-β capture antibodies were coated on 96 well MultiArray plates (Mesoscale Discovery). After a one hour incubation, plates were washed and 50 μL supernatant from the STING human cell reporter assay plates or IFN-β standards were mixed with 20 μL Sulfotag-conjugated detection antibody in the coated plates. Plates were incubated, shaking for 2 h, washed, and read buffer was applied. Electrochemiluminescence was measured on the Sectorlmager.

In assay [3] the test system is human STING pathway in THP1-ISG cells. The experiment in a line: STING human cell reporter assay. In kind it is cell-based. Particulars: 24 h, mean of at least three values. The procedure: STING Human Cell Reporter Assay
Agonism of the human STING pathway is assessed in THP1-ISG cells (Invivogen, cat #thp-isg) derived from human THP1 monocyte cell line by stable integration of an interferon regulatory factor (IRF)-inducible SEAP reporter construct. THP1-Blue ISG cells express a secreted embryonic alkaline phosphatase (SEAP) reporter gene under the control of an ISG54 minimal promoter in conjunction with five interferon (IFN)-stimulated response elements. As a result, THP1-Blue ISG cells allow the monitoring of IRF activation by determining the activity of SEAP. The levels of IRF-induced SEAP in the cell culture supernatant are readily assessed with alkaline phosphatase detection medium, a SEAP detection reagent. These cells are resistant to Zeocin. […] To run the assay, 60,000 cells were dispensed in 30 μL/well of a white, opaque bottom tissue culture treated 384-well plate.
Test compounds were added in a volume of 10 μL (1% DMSO final concentration). Compounds are initially prepared in 100% DMSO, spotted on an intermediate dilution plate and then diluted in media prior to transfer. The assay was incubated for 24 h at 37 °C, 5% CO2 then plates were centrifuged at 1200 rpm (120× g) for 5 min. After final incubation, 90 μL of alkaline phosphatase detection medium-substrate was added to each well of a new 384-well clear plate and 10 μL of the cell supernatant was transferred from the assay plate to the new alkaline phosphatase detection medium-plate using a Biomek FX and mixed 4 times.
(In general: Reporter assays use an easily measured gene product as a stand-in for the process of interest.)

The test system of the next assay is HBV infected PHH cells. The experiment in a line: Suppression of HBV virus in PHH cells using conditioned media from STING activated primary human PBMC. It is filed as cell-based, hepatitis B virus. The following applies: conditioned media from PBMCs stimulated at 20, 4, 0.8 μM for 48 h, 1:1 on HBV infected PHH cells; HBsAg 8 days later; two donors; read-out: EC50 (HBsAg production). The text has this: Suppression of HBV Virus in PHH Cells Using Conditioned Media from STING Activated Primary Human PBMC
Primary human hepatocytes can be infected with hepatitis B virus and during an established infection, will produce viral proteins such as HBsAg and HBeAg that can be detected by ELISA. Therapeutic treatment with compounds such as entecavir can suppress HBV reproduction, which can be measured by decreased viral protein production. (# of cells) 4×10^5 cells/well primary human hepatocytes (BioReclamation, Westbury, N.Y.) were dispensed into 500 μL/well of flat-bottom, tissue culture treated, 24-well plates. 24 h later, cells were infected with 30-75 moi of HBV. On the next day, the PHH were washed 3× and fresh maintenance media was added to the cells. Concurrently, PBMC were isolated as described previously. To stimulate the PBMC, 10,000,000 cells were dispensed into 400 μL/well of flat-bottom, tissue culture treated, 24-well plates. […] Cells were measured for activation marker upregulation using flow cytometery. […] Samples were analyzed on an Attune NxT flow cytometer (Thermo Fisher, Carlsbad, Calif.)
From the stimulated PBMC cultures, a portion of supernatant was reserved for cytokine detection by Luminex, as described previously. […] Following 96 h, the media was collected and HBsAg was measured.

Another assay addresses STING (Homo sapiens, UniProt Q86WV6, H232R). The assay can be described thus: STING SPA binding assay. The following applies: displacement of [3H]-2′3′-cGAMP; mean of at least three values; read-out: hSTING SPA IC50. The procedure: The HIS tag is cleaved after purification and prior to biotinylation.
Test compounds (80 nL) were added with an acoustic dispenser (EDC Biosystems) in 100% DMSO for a final assay concentration of 1% DMSO. Plates were centrifuged for 1 min and incubated for 60 min at room temperature. Finally, (2 μL) polystyrene streptavidin SPA beads (PerkinElmer RPNQ0306) were added and plates were sealed and centrifuged for 1 min at room temperature. Plates were dark adapted for 2 h and read on a ViewLux (Perkin Elmer) for 12 min per plate.
In general terms: Loss of bound radioactivity is the signal in a displacement assay; it reports binding, not function.

Sequence of STING (Q86WV6 139-379 H232R): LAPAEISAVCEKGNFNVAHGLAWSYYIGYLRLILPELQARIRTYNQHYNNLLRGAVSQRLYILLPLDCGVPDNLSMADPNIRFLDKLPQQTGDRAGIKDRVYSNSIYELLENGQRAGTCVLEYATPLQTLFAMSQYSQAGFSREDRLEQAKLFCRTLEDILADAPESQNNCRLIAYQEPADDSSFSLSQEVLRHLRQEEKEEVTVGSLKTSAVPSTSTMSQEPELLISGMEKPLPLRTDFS

On to `Nc1nc2c(ncn2C2OC3CO[P@@](=O)(S)OC4C(CO[P@@](=O)(S)OC2C3O)OC(n2cnc3c(N)ncnc32)C4F)c(=O)[nH]1` (single isomer, unassigned) [Compound 4], for which, in assay [1], the “In vivo activity (% TGI)” value is 93.7% and the “In vivo activity (cures)” value was 6/8. The “human IFN-β (ranking value)” value in assay [2] stood at 2247. In addition, the EC50 in assay [3] is 90 nM.
Taken in the same sequence, the figures for `Nc1nc2c(ncn2C2OC3CO[P@](=O)(S)OC4C(CO[P@](=O)(S)OC2C3O)OC(n2cnc3c(N)ncnc32)C4F)c(=O)[nH]1` (single isomer, unassigned) [Compound 5] were 93.3%, 7/8, 2737 and 160 nM.
Take `B[P@]1(=O)OCC2OC(n3cnc4c(=O)[nH]c(N)nc43)C(O[P@@](B)(=O)OCC3OC(n4cnc5c(N)ncnc54)C(O)C3O1)C2O` (single isomer, unassigned) [Compound 7]: in assay [1], the “In vivo activity (% TGI)” value was 94.3% and the “In vivo activity (cures)” value was 5/8. Further, the concentration for a half-maximal effect (EC50) in the assay with HBV infected PHH cells was 0.0851 nM. In assay [2], the “human IFN-β (ranking value)” value is listed as 2260. Also, the EC50 in assay [3] is 1120 nM.
Regarding `B[P@@]1(=O)OCC2OC(n3cnc4c(=O)[nH]c(N)nc43)C(O[P@](B)(=O)OCC3OC(n4cnc5c(N)ncnc54)C(O)C3O1)C2O` (single isomer, unassigned) [Compound 8], in assay [1], the “In vivo activity (% TGI)” value is 95.3% and the “In vivo activity (cures)” value is 4/8. In addition, the “human IFN-β (ranking value)” value in assay [2] came out at 2054. This compound also displayed an EC50 in assay [3] of 110 nM.
For the compound `B[P@@]1(=O)OCC2OC(n3cnc4c(=O)[nH]c(N)nc43)C(O[P@](=O)(S)OCC3OC(n4cnc5c(N)ncnc54)C(F)C3O1)C2OC` (single isomer, unassigned) [Compound 9], the “In vivo activity (% TGI)” value in assay [1] was determined as 89.8%. The “human IFN-β (ranking value)” value in assay [2] is 2240. The compound also showed an EC50 in assay [3] of 640 nM.
As to `B[P@]1(=O)OCC2OC(n3cnc4c(=O)[nH]c(N)nc43)C(O[P@](=O)(S)OCC3OC(n4cnc5c(N)ncnc54)C(F)C3O1)C2OC` (single isomer, unassigned) [Compound 10], in assay [2], the “human IFN-β (ranking value)” value was found to be 1321. Further, the EC50 in assay [3] was found to be 540 nM.
In the case of `B[P@@]1(=O)OCC2OC(n3cnc4c(=O)[nH]c(N)nc43)C(O[P@](B)(=O)OCC3OC(n4cnc5c(N)ncnc54)C(F)C3O1)C2OC` (single isomer, unassigned) [Compound 11], the IC50 on STING was < 10 nM. Also, in assay [2], the “human IFN-β (ranking value)” value is given as 3840. The compound further displayed an EC50 in assay [3] of 490 nM.
In the same order, the values of `B[P@]1(=O)OCC2OC(n3cnc4c(=O)[nH]c(N)nc43)C(O[P@@](B)(=O)OCC3OC(n4cnc5c(N)ncnc54)C(F)C3O1)C2OC` (single isomer, unassigned) [Compound 12] are < 10 nM, 3860 and 220 nM.
In the case of `B[P@@]1(=O)OCC2OC(n3cnc4c(N)ncnc43)C(F)C2O[P@](=O)(S)OCC2OC(n3cnc4c(=O)[nH]c(N)nc43)C(O1)C2OC` (single isomer, unassigned) [Compound 13], the “human IFN-β (ranking value)” value in assay [2] was 2900. The compound also displayed an EC50 in assay [3] of 590 nM.
In the same order, the values of `B[P@]1(=O)OCC2OC(n3cnc4c(N)ncnc43)C(F)C2O[P@@](=O)(S)OCC2OC(n3cnc4c(=O)[nH]c(N)nc43)C(O1)C2OC` (single isomer, unassigned) [Compound 14] are 4964 and 450 nM.
On to `Nc1nc2c(ncn2C2OC3COP(=O)(O)OC4C5OCC4(COP(=O)(O)OC2C3O)OC5n2cnc3c(N)ncnc32)c(=O)[nH]1` (stereo not drawn) [Compound 6], for which, in assay [1], the “In vivo activity (% TGI)” value is recorded as 73.9% and the “In vivo activity (cures)” value is listed as 1/8. Besides, the “human IFN-β (ranking value)” value in assay [2] is 27. In assay [3], this compound returned an EC50 of 120 nM.
